Reference: US20040157818A1, “Cxcr4-antagonistic drugs composed of nitrogen-containing compound” (priority 2001, published 2004)

Legend:
[1] = test system: ICR mice; assay: Acute toxicity in ICR mice; assay type: in vivo; details: 50 mg/kg intraperitoneally twice a day for 4 days; dead mice after 5 days; male ICR mice, three animals per group
Experimental: The CXCR4-antagonist or the salt thereof of the present invention is intraperitoneally injected in to an ICR mouse ([…]) twice a day for 4 consecutive days, and no lethal case was found after 5 days. Therefore, the conclusion can be drawn that there is no acute toxicity.
7-week old ICR mice (male) (obtained from Charls River Japan Inc) were divided into three-animals for each groups. After domestication-breeding for 1 week, the compound of the coresponding Synthesis Example was dissolved in a physiological salt solution or distilled water and the solution was then intraperitoneally dosed twice a day for 4 days (50 mg/kg in dosage).

[2] = test system: type-II collagen-induced arthritis mouse; assay: Drug efficacy test on type-II collagen-induced arthritis (CIA) mouse; assay type: in vivo
Experimental: Drug Efficacy Test of the Compound No. 86 on Type-II Collagen-Induced Arthritis Mouse
Using the type-II collagen-induced mouse arthritis (CIA) model, which was a model of articular rheumatism (RA), the compound No. 86 was tested for drug efficacy.
24 of 6-week-oldmale DBA/l mice (obtained from Charles River Japan, Inc.) were used as test animal and were divided in groups of 12 animals, that is, a test group of and a control group, such that the average weights of the respective groups were almost equal to each other.
An initial-sensitizing antigen solution used was a liquid of adjusted emulsion prepared by dissolving chicken type-II collagen (obtained from Collagen Gijyutu Kensyuukai) in 0.01N acetic acid (4mg/mL) andthenmixingwith an equal amount of Freund's complete adjuvant (manufactured by Difco BRL), and an additional-sensitizing antigen solution used was a liquid of emulsion prepared by dissolving chicken type-II collagen in 0.01N acetic acid (8 mg/mL), and then mixing with an equal amount of Freund's complete adjuvant.
An initial sensitization was performed by endodermic injection of 50 μl of the initial-sensitizing antigen solution (containing 100 μg of chicken type-II collagen) into the tail of the mouse. The additional sensitization was performed after 21 days from the initial sensitization by endodermic injection of 50 μl of the additional-sensitizing antigen solution (containing 200 μg of chicken type-II collagen) into the tail of the mouse.
The compound No. 86, which was provided as a test material, was provided as one at a concentration of 5 mg/mL prepared by dissolving ditartrate thereof in a physiological saline solution. The test material was administered such that the test material was interperitoneally administered once a day for consecutive 17 days from 2 days before the additional sensitization (an amount of administered liquid was 10 mL/kg). In addition, for the control group, the test material was administered by dissolving ditartrate in a physiological saline solution so as to make the concentration of tartaric acid of 1.7 mg/mL because a dosage solvent is ditartrate for the test material compound No. 86.
Amacroscopic observation on extremities after the additional sensitization was performed once a day. A scoring of the macroscopic observation was according to the following criteria and judged on each of extremities with respect to edema of foot. The total of the scores of extremities was provided as an index of the onset of symptoms and pharmacometrics with respect to arthritis. In addition, the total of the numbers of fingers of each extremity on which edema was observed was also used as an index of pharmacometrics.
In addition, the scores in FIG. 6 were defined as follows: […]

[3] = target: T1, CXCR4 (Homo sapiens, UniProt P61073); assay: CXCR4-binding inhibition activity (125I-SDF-1α binding to MT-4 cells); details: 0.1 μM test material, ligand 125I-SDF-1α, 2 hours under ice cold condition
T1 construct: endogenous in cells; host or cells: MT-4 cells
T1 sequence (P61073 whole entry): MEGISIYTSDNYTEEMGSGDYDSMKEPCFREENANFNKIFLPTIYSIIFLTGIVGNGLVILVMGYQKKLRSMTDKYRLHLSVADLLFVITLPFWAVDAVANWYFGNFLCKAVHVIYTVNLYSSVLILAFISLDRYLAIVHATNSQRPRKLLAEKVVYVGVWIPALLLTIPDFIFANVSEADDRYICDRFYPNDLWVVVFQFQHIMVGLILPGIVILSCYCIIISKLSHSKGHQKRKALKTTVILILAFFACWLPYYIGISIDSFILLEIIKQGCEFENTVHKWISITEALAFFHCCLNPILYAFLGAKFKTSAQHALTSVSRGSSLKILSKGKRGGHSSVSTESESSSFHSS
Experimental: CXCR4-Binding Inhibition Activity
MT-4 cells (5×10^6/0.2 ml/well) were cultured on a 24-well microtiter plate. After the cells were incubated for 24 hours at 37° C. in a carbon dioxide gas incubator, a culture mediumwas replaced with a buffer solution (RPMI-1640 containing 0.1% BSA). Together with a ligand ^125I-SDF-1α (specific activity: 2,2000 Ci/mmol; DAIICHI PURE CHEMICALS CO. ,LTD. (Tokyo)), various concentrations of test materials were subjected to a binding reaction for 2 hours under ice cold condition.

C[C@H](NC(=O)[C@H](CCCN=C(N)N)NC(=O)c1ccc(CNCc2ccccn2)cc1)c1cccc2ccccc12 [Compound No. 86, N^α-(4-(N-2-picolylaminomethyl)benzoyl)-L-arginine(1′S)-1′-(1-naphthyl)ethylamide]
Number of dead mice [1]: 0/3 | lesion score of extremities (arthritis score) ([2]; 5 mg/mL, 10 mL/kg intraperitoneally once a day for 17 days from 2 days before additional sensitization, observed 12 days after additional sensitization, vs control group): tended to inhibit a chronological increase | change in animal body weights ([2]; 5 mg/mL, 10 mL/kg intraperitoneally once a day for 17 days, CIA mice): no influence was found | number of edematous fingers (chronological increase) ([2]; 5 mg/mL, 10 mL/kg intraperitoneally once a day for 17 days, observed 12 days after additional sensitization, vs control group): tended to inhibit a chronological increase | increase in number of edematous fingers ([2]; after 12 days from the additional sensitization, vs control group): significantly inhibited | inhibition rate (binding-inhibition % at 0.1 μM) [3]: 91.4%
